# Results as given in ChEMBL document CHEMBL1125700, “Conformational properties of semirigid antipsychotic drugs: the pharmacophore for dopamine D-2 antagonist activity” (J Med Chem, 1991).
# “And” between values parts separate entries of the source, which are not always exact repeats. Equal values may be shown once.
# Tests used:
# D(2) dopamine receptor [1] = molecular target: T1, D(2) dopamine receptor (Homo sapiens, UniProt P14416); assay: The compound was tested for binding affinity against dopamine receptor D2 using raclopride as radioligand
# [2] = molecular target: T2, Sigma non-opioid intracellular receptor 1 (Homo sapiens, UniProt Q99720); assay: The compound was tested for binding affinity against sigma receptor using DTG as radioligand
# D(1A) dopamine receptor [3] = molecular target: T3, D(1A) dopamine receptor (Homo sapiens, UniProt P21728); assay: Binding affinity determined in radioreceptor binding assay by using [3H]SCH-23390 radioligand against dopamine receptor D1
# [4] = molecular target: Serotonin 2 (5-HT2) receptor (Homo sapiens, UniProt P41595+P28223+P28335); assay: The compound was tested for binding affinity against 5-hydroxytryptamine 2 receptor using ketanserin as radioligand; type: protein assay
# [5] = molecular target: T4, Alpha-1A adrenergic receptor (Homo sapiens, UniProt P35348); assay: The compound was tested for binding affinity against Alpha-1 adrenergic receptor using WB-4101 as radioligand
# T4 sequence (P35348 whole entry): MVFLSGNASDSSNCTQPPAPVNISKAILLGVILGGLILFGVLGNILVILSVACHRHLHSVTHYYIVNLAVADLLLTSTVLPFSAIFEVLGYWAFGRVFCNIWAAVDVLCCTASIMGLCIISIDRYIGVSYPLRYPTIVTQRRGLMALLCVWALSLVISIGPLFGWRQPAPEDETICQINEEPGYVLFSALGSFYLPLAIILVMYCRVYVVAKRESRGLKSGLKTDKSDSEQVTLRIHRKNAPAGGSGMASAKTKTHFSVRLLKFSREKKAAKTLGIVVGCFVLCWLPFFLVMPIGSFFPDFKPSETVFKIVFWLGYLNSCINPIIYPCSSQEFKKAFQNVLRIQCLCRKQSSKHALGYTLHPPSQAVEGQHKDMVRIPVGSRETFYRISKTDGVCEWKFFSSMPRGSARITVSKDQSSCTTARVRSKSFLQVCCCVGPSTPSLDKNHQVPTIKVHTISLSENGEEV
# [6] = molecular target: Muscarinic acetylcholine receptor; assay: The compound was tested for binding affinity against muscarinic acetylcholine receptor using QNB as radioligand; type: protein assay
# [7] = molecular target: Muscarinic acetylcholine receptor; assay: The compound was tested for binding affinity against Muscarinic acetylcholine receptor using QNB as radioligand; type: protein assay
# [8] = molecular target: T2, Sigma non-opioid intracellular receptor 1; assay: The compound was tested for binding affinity against Sigma opioid receptor using DTG as radioligand
# D(2) dopamine receptor [9] = molecular target: T1, D(2) dopamine receptor; assay: The compound was tested for binding affinity against Dopamine receptor D2 using raclopride as radioligand
# D(1A) dopamine receptor [10] = molecular target: T3, D(1A) dopamine receptor; assay: The compound was tested for binding affinity against Dopamine receptor D1 using SCH-23390 as radioligand
# T2 sequence (Q99720 whole entry): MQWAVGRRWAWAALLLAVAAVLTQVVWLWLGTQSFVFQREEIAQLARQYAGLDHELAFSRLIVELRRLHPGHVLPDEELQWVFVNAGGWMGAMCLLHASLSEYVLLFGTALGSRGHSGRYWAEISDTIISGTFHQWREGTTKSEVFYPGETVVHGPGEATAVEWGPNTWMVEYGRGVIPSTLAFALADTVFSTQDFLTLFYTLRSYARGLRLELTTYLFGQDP
# T3 sequence (P21728 whole entry): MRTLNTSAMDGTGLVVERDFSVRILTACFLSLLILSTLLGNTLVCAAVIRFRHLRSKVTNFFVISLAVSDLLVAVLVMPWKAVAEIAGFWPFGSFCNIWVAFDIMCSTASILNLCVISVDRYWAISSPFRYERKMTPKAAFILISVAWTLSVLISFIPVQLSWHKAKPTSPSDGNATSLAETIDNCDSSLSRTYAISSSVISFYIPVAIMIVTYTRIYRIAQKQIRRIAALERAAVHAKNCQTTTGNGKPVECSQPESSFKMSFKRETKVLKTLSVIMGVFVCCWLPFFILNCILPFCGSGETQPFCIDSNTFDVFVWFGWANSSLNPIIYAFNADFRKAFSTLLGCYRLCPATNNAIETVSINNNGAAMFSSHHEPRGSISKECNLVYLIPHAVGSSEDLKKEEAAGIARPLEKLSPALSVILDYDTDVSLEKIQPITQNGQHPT
# T1 sequence (P14416 whole entry): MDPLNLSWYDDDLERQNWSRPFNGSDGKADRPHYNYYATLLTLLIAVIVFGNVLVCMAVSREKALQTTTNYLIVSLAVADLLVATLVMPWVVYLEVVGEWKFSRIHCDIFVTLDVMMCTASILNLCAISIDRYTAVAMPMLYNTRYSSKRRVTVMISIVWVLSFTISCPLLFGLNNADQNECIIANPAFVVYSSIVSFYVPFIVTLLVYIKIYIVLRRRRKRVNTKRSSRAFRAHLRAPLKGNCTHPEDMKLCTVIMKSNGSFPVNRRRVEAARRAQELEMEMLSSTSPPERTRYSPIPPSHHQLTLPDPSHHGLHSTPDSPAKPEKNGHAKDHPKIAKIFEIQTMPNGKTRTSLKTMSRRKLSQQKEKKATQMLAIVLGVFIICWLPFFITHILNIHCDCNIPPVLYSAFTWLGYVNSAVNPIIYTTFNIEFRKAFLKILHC
Ki (D(2) dopamine receptor [1]),Ki [2],Ki (D(1A) dopamine receptor [3]),Ki [4],Ki [5],Ki [6],Ki [7],Ki [8],Ki (D(2) dopamine receptor [9]),Ki (D(1A) dopamine receptor [10]),Structure (SMILES)
0.66 nM,1600 nM,0.3 nM,1 nM,36 nM,4.3 nM,–,–,–,–,CN(C)C1C=CC2(CC1)c1ccccc1C=Cc1ccc(Cl)cc12 (centres undefined)
–,–,–,1.3 nM,61 nM,–,7.2 nM,800 nM,6.5 nM,3.1 nM,"CN(C)C1C=CC2(CC1)c1ccccc1C=Cc1ccc(Cl)cc12 (single isomer, unassigned; enantiomer 2)"
–,550 nM and 1400 nM,–,–,–,94 nM and 43 nM,–,–,–,–,CN(C)C1C=CC2(CC1)c1ccccc1CCc1ccc(Cl)cc12 (centres undefined)
